Data taken from patent US10131657B2, “Bromodomain inhibitors” (AbbVie Inc., priority 2013, dated 2018).

Key:
BRD4 (BDI_K57-E168) = molecular target: T1, BRD4 (BDI_K57-E168) (Homo sapiens, UniProt O60885); assay: TR-FRET bromodomain binding assay, BRD4 first bromodomain; details: His-tagged BRD4 BD1, 100 nM Alexa647 probe; Ki calculated from IC50, probe Kd and probe concentration
T1 construct: BD1: amino acids K57-E168; made in house
Description: (§1) A time-resolved fluorescence resonance energy transfer (TR-FRET) assay was used to determine the affinities of compounds of the Examples listed in Table 1 for each bromodomain of BRD4. His-tagged first (BD1: amino acids K57-E168) and second (BD2: amino acids E352-E168) bromodomains of BRD4 were expressed and purified. An Alexa647-labeled BET-inhibitor was used as the fluorescent probe in the assay.
(§2) Compound dilution series were prepared in DMSO via a 3-fold serial dilution from 2.5 mM to 42 nM. Compounds were then diluted 6:100 in assay buffer (20 mM Sodium Phosphate, pH 6.0, 50 mM NaCl, 1 mM Ethylenediaminetetraacetic acid disodium salt dihydrate, 0.01% Triton X-100, 1 mM DL-Dithiothreitol) to yield 3× working solutions. Six microliters (μL) of the working solution was then transferred to white, low-volume assay plates (Costar #3673). A 1.5× assay mixture containing His-tagged bromodomain, Europium-conjugated anti-His antibody (Invitrogen PV5596) and the Alexa-647-conjugated probe molecule was also prepared. Twelve μL of this solution were added to the assay plate to reach a final volume of 18 μL. The final concentration of 1× assay buffer contains 2% DMSO, 50 μM-0.85 nM compound, 8 nM His-tagged bromodomain, 1 nM Europium-conjugated anti-His-tag antibody and 100 nM or 30 nM probe (for BDI or BDII, respectively). After a one-hour incubation at room temperature, TR-FRET ratios were determined using an Envision multilabel plate reader (Ex 340, Em […]).
(§3) TR-FRET data were normalized to the means of 24 no-compound controls (“high”) and 8 controls containing 1 μM un-labeled probe (“low”). […] Inhibition constants (Ki) were calculated from the IC50s, probe Kd and probe concentration. […] The minimum significant ratio was determined to evaluate assay reproducibility (Eastwood et al., (2006) J Biomol Screen, 11: 253-261). The MSR was determined to be 2.03 for BDI and 1.93 for BDII, and a moving MSR (last six run MSR overtime) for both BDI and BDII was typically <3.

BRD4 (BDII_E352-M457) = molecular target: T2, BRD4 (BDII_E352-M457) (Homo sapiens, UniProt O60885); assay: TR-FRET bromodomain binding assay, BRD4 second bromodomain; details: His-tagged BRD4 BD2, 30 nM Alexa647 probe; Ki calculated from IC50, probe Kd and probe concentration
T2 construct: made in house
Description: as §1, §2, §3

[1] = system: breast cancer cell line MX-1; assay: MX-1 cell line proliferation assay, Method A; type: cell-based; details: Homo sapiens, MX1; MX-1 cells, 96-well, 72 hours, Cell Titer Glo; read-out: Cellular proliferation: EC50 Method A
Summary of the method: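 MX-1 breast cancer cells (5000/well) were attached overnight in RPMI 1640 with 10% FBS, then exposed for 3 days to compound at 0.0001–3 μM final. Cell Titer Glo luminescence was normalized to DMSO controls, and EC50s were obtained by sigmoidal fitting.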

SMILES | Ki (BRD4 (BDI_K57-E168)) | Ki (BRD4 (BDII_E352-M457)) | EC50 [1]
COc1ccc(S(=O)(=O)Nc2cccc(Oc3ccc(S(C)(=O)=O)cc3-c3cn(C)c(=O)c4[nH]ccc34)c2)cc1OC [Example 53, 3,4-dimethoxy-N-{3-[2-(6-methyl-7-oxo-6,7-dihydro-1H-pyrrolo[2,3-c]pyridin-4-yl)-4-(methylsulfonyl)phenoxy]phenyl}benzenesulfonamide] | 3.4 nM | 1 nM | 144 nM
CCS(=O)(=O)c1ccc(OCC2CC2(F)F)c(-c2cn(C)c(=O)c3[nH]c(CN4CCN(c5ncccn5)CC4)cc23)c1 (centres unmarked) [Example 19, 4-{2-[(2,2-difluorocyclopropyl)methoxy]-5-(ethylsulfonyl)phenyl}-6-methyl-2-{[4-(pyrimidin-2-yl)piperazin-1-yl]methyl}-1,6-dihydro-7H-pyrrolo[2,3-c]pyridin-7-one] | 6.1 nM | 62 nM | –
Cn1cc(-c2cc(S(C)(=O)=O)ccc2NC2CCN(S(=O)(=O)/C=C/c3ccccc3)CC2)c2cc[nH]c2c1=O [Example 102, 6-methyl-4-{5-(methylsulfonyl)-2-[(1-{[(E)-2-phenylethenyl]sulfonyl}piperidin-4-yl)amino]phenyl}-1,6-dihydro-7H-pyrrolo[2,3-c]pyridin-7-one] | 6 nM | 6.8 nM | 67.3 nM
